Source: ChEMBL document CHEMBL2203055, “From α4β2 Nicotinic Ligands to the Discovery of σ1 Receptor Ligands: Pharmacophore Analysis and Rational Design” (ACS Med Chem Lett, 2012)

Experiments:
[1] = biological target: 5-hydroxytryptamine receptor 1B (Homo sapiens) (UniProt P28222); assay: Displacement of [3H]GR125743 from human recombinant 5-HT1B receptor at 10 uM after 1.5 hrs by microbeta scintillation counting analysis
[2] = biological target: D(2) dopamine receptor (Homo sapiens) (UniProt P14416); assay: Displacement of [3H]N-methylspiperone from human recombinant D2 receptor at 10 uM after 1.5 hrs by microbeta scintillation counting analysis
[3] = biological target: Delta-type opioid receptor (Homo sapiens) (UniProt P41143); assay: Displacement of [3H]DADLE from human recombinant delta-opioid receptor at 10 uM after 1.5 hrs by microbeta scintillation counting analysis
[4] = biological target: Alpha-1A adrenergic receptor (Homo sapiens) (UniProt P35348); assay: Displacement of [3H]prazosin from alpha 1A adrenergic receptor at 10 uM after 1 hr by microbeta scintillation counting analysis
[5] = biological target: Alpha-1D adrenergic receptor (Homo sapiens) (UniProt P25100); assay: Inhibitory activity against alpha 1D adrenergic receptor at 10 uM
[6] = Displacement of [3H]DTG from sigma 2 receptor in rat PC12 cell membrane after 2 hrs by microbeta scintillation counting analysis; format: cell membranes; conditions: pc-12
[7] = biological target: Alpha-2B adrenergic receptor (Homo sapiens) (UniProt P18089); assay: Displacement of [3H]clonidine from human recombinant alpha 2B adrenergic receptor at 10 uM after 40 mins by microbeta scintillation counting analysis
Alpha-2B adrenergic receptor (Homo sapiens), sequence (P18089 whole entry): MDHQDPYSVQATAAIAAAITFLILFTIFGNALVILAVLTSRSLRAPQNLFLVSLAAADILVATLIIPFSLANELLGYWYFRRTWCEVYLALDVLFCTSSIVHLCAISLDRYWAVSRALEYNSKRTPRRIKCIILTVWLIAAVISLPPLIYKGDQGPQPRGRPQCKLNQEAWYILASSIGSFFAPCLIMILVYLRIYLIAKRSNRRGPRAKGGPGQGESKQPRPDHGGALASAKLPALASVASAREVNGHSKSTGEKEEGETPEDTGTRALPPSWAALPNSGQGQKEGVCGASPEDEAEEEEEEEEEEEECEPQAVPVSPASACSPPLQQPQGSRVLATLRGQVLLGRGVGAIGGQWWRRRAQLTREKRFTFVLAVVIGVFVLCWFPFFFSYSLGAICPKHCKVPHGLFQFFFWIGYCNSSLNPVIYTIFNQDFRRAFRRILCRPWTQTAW

[8] = biological target: 5-hydroxytryptamine receptor 5A (Homo sapiens) (UniProt P47898); assay: Displacement of [3H]LSD from human recombinant 5-HT5A receptor at 10 uM after 1.5 hrs by microbeta scintillation counting analysis
[9] = biological target: Kappa-type opioid receptor (Rattus norvegicus) (UniProt P34975); assay: Displacement of [3H]U69593 from rat kappa-opioid receptor at 10 uM after 1.5 hrs by microbeta scintillation counting analysis
[10] = biological target: Sodium-dependent dopamine transporter (Homo sapiens, UniProt Q01959); assay: Displacement of [3H]WIN35428 from human recombinant DAT at 10 uM after 1.5 hrs by microbeta scintillation counting analysis
[11] = biological target: 5-hydroxytryptamine receptor 1A (Homo sapiens) (UniProt P08908); assay: Displacement of [3H]-8-OH-DPAT from human recombinant 5-HT1A receptor at 10 uM after 1.5 hrs by microbeta scintillation counting analysis
[12] = biological target: Beta-2 adrenergic receptor (Homo sapiens, UniProt P07550); assay: Displacement of [125I]Iodopindolol from beta 2 adrenergic receptor at 10 uM after 1.5 hrs by microbeta scintillation counting analysis
Rattus norvegicus [13] = species on record: Rattus norvegicus; assay: Inhibitory activity against benzodiazepine receptor in rat brain at 10 uM; format: tissue-based
[14] = biological target: Muscarinic acetylcholine receptor M2 (Homo sapiens) (UniProt P08172); assay: Displacement of [3H]QNB from human recombinant muscarinic M2 receptor at 10 uM after 1.5 hrs by microbeta scintillation counting analysis
[15] = biological target: T1, Sodium-dependent noradrenaline transporter (Homo sapiens, UniProt P23975); assay: Displacement of [3H]nisoxetine from human recombinant NET after 1.5 hrs by microbeta scintillation counting analysis
T1 sequence (P23975 whole entry): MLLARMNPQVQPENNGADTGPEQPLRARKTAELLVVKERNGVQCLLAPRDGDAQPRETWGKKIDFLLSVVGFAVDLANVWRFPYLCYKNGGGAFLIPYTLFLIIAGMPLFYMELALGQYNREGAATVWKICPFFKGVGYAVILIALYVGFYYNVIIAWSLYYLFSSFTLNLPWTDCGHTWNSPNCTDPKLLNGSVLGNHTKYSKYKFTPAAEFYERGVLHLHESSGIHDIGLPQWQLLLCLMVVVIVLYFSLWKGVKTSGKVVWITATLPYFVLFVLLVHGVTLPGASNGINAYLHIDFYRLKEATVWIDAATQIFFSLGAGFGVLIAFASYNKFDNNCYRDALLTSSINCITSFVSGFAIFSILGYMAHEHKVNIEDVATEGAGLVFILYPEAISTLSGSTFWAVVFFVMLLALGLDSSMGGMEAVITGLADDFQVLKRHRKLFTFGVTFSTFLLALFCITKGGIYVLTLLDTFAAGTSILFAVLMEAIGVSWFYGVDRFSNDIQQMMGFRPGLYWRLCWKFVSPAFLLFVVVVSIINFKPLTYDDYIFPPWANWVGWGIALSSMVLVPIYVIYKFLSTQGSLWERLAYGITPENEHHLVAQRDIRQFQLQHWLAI

[16] = biological target: D(3) dopamine receptor (Homo sapiens) (UniProt P35462); assay: Displacement of [3H]N-methylspiperone from D3 receptor at 10 uM after 1.5 hrs by microbeta scintillation counting analysis
[17] = biological target: Muscarinic acetylcholine receptor M4 (Homo sapiens) (UniProt P08173); assay: Displacement of [3H]QNB from human recombinant muscarinic M4 receptor at 10 uM after 1.5 hrs by microbeta scintillation counting analysis
Muscarinic acetylcholine receptor M4 (Homo sapiens), sequence (P08173 whole entry): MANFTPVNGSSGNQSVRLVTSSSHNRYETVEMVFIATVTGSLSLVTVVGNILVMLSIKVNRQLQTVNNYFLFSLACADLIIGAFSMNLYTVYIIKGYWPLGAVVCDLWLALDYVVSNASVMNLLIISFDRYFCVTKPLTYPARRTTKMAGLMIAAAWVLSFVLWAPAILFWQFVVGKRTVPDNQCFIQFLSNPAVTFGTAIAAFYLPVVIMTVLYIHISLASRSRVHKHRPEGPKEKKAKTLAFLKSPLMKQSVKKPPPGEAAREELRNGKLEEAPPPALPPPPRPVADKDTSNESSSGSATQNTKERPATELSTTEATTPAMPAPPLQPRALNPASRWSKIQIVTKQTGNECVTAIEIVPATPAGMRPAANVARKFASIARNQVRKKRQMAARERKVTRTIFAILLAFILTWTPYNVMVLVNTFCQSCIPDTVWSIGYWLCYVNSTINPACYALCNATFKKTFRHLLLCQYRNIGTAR

[18] = biological target: T1, Sodium-dependent noradrenaline transporter; assay: Displacement of [3H]nisoxetine from human recombinant NET at 10 uM after 1.5 hrs by microbeta scintillation counting analysis
[19] = biological target: 5-hydroxytryptamine receptor 6 (Homo sapiens, UniProt P50406); assay: Displacement of [3H]LSD from human recombinant 5-HT6 receptor at 10 uM after 1.5 hrs by microbeta scintillation counting analysis
[20] = biological target: D(1A) dopamine receptor (Homo sapiens) (UniProt P21728); assay: Displacement of [3H]SCH23390 from human recombinant D1 receptor at 10 uM after 1.5 hrs by microbeta scintillation counting analysis
D(1A) dopamine receptor (Homo sapiens), sequence (P21728 whole entry): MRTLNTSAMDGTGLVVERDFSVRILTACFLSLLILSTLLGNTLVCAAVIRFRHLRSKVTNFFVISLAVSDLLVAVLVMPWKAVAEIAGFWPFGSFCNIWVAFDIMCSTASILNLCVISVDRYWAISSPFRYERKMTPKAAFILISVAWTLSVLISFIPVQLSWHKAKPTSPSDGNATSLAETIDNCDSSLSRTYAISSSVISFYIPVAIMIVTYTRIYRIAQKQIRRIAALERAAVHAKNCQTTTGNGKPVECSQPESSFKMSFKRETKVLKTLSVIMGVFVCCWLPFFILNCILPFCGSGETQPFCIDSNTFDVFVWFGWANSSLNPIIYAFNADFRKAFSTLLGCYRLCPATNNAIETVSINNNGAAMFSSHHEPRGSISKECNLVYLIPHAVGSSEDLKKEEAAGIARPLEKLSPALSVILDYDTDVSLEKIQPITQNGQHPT

[21] = biological target: 5-hydroxytryptamine receptor 3A (Homo sapiens) (UniProt P46098); assay: Displacement of [3H]LY-278584 from human recombinant 5-HT3 receptor at 10 uM after 1.5 hrs by microbeta scintillation counting analysis
5-hydroxytryptamine receptor 3A (Homo sapiens), sequence (P46098 whole entry): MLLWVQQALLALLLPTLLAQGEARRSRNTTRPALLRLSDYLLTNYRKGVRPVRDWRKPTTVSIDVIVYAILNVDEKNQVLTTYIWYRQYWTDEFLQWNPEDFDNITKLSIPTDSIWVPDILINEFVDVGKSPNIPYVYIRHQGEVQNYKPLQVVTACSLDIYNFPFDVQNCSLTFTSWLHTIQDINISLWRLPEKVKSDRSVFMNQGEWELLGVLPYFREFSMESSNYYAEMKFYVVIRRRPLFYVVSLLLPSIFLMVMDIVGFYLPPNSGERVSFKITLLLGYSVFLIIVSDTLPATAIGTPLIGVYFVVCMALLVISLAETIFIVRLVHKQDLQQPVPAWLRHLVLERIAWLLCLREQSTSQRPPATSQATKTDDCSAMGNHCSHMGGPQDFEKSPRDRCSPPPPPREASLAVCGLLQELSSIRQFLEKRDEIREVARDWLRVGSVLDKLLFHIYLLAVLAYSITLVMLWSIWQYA

[22] = biological target: D(1B) dopamine receptor (Homo sapiens) (UniProt P21918); assay: Displacement of [3H]SCH23390 from human recombinant D5 receptor at 10 uM after 1.5 hrs by microbeta scintillation counting analysis
[23] = biological target: Muscarinic acetylcholine receptor M1 (Homo sapiens) (UniProt P11229); assay: Displacement of [3H]QNB from human recombinant muscarinic M1 receptor at 10 uM after 1.5 hrs by microbeta scintillation counting analysis
[24] = biological target: 5-hydroxytryptamine receptor 2B (Homo sapiens, UniProt P41595); assay: Displacement of [3H]LSD from human recombinant 5-HT2B receptor at 10 uM after 1.5 hrs by microbeta scintillation counting analysis
5-hydroxytryptamine receptor 2B, sequence (P41595 whole entry): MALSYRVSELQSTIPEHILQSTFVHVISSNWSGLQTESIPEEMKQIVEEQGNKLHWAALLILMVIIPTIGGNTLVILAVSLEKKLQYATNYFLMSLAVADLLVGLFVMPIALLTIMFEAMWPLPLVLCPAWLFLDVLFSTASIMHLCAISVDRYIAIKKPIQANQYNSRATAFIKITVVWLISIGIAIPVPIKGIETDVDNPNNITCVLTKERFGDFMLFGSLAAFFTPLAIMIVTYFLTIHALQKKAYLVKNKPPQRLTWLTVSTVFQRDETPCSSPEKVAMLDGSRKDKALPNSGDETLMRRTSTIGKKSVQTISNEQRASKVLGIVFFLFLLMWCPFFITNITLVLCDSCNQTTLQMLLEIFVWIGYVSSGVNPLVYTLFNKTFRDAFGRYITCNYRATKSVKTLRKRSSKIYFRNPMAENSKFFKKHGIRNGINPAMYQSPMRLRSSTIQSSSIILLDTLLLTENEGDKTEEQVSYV

[25] = biological target: Muscarinic acetylcholine receptor M5 (Homo sapiens) (UniProt P08912); assay: Displacement of [3H]QNB from human recombinant muscarinic M5 receptor at 10 uM after 1.5 hrs by microbeta scintillation counting analysis
Muscarinic acetylcholine receptor M5 (Homo sapiens), sequence (P08912 whole entry): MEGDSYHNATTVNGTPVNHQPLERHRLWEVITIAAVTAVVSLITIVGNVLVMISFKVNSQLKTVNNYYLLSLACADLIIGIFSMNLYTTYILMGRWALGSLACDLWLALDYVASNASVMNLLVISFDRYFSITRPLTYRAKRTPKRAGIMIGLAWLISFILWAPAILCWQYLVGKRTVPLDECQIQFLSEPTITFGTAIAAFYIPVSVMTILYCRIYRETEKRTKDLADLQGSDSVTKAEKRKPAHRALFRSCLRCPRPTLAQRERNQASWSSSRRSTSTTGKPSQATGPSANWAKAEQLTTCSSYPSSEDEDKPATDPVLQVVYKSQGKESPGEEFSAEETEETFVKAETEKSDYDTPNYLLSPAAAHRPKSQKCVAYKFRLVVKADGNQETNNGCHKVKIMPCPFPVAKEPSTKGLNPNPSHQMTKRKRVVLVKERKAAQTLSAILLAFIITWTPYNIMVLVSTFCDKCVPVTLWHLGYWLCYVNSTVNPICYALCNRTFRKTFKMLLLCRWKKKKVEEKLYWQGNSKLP

Rattus norvegicus [26] = species on record: Rattus norvegicus; assay: Displacement of [3H]muscimol from GABAA receptor in rat brain membrane at 10 uM after 1.5 hrs by microbeta scintillation counting analysis; format: cell membranes
[27] = biological target: Histamine H4 receptor (Homo sapiens) (UniProt Q9H3N8); assay: Displacement of [3H]histamine from histamine H4 receptor at 10 uM after 1.5 hrs by microbeta scintillation counting analysis
Histamine H4 receptor (Homo sapiens), sequence (Q9H3N8 whole entry): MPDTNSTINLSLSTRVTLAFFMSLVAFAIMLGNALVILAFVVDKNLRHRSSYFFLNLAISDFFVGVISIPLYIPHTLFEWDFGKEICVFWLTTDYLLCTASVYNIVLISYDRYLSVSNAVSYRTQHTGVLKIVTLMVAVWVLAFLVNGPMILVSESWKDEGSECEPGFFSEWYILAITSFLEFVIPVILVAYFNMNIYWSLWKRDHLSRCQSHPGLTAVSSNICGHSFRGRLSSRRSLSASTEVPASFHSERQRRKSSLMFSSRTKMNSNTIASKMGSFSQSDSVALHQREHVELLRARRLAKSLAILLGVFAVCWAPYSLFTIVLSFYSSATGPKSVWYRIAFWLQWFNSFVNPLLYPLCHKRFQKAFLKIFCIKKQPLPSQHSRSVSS

[28] = biological target: 5-hydroxytryptamine receptor 7 (Homo sapiens) (UniProt P34969); assay: Displacement of [3H]LSD from human recombinant 5-HT7 receptor at 10 uM after 1.5 hrs by microbeta scintillation counting analysis
Histamine H2 receptor = Histamine H2 receptor (Homo sapiens, UniProt P25021); assay: Displacement of [3H]tiotidine from human recombinant histamine H2 receptor at 10 uM after 1.5 hrs by microbeta scintillation counting analysis
Histamine H2 receptor, sequence (P25021 whole entry): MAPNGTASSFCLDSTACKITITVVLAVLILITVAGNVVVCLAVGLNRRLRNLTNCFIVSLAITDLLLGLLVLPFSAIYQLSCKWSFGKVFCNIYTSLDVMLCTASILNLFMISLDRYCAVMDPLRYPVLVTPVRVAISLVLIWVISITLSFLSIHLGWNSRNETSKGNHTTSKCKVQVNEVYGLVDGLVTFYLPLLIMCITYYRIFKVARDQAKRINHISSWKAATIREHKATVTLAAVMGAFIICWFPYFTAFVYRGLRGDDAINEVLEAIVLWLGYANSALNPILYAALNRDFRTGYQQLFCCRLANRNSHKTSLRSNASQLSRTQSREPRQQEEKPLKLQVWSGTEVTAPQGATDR

[29] = biological target: Mu-type opioid receptor (Homo sapiens) (UniProt P35372); assay: Displacement of [3H]DAMGO from mu-opioid receptor at 10 uM after 1.5 hrs by microbeta scintillation counting analysis
[30] = biological target: 5-hydroxytryptamine receptor 2C (Homo sapiens) (UniProt P28335); assay: Displacement of [3H]mesulergine from human recombinant 5-HT2C receptor at 10 uM after 1.5 hrs by microbeta scintillation counting analysis
[31] = biological target: 5-hydroxytryptamine receptor 2C (Homo sapiens, UniProt P28335); assay: Displacement of [3H]mesulergine from human recombinant 5-HT2C receptor after 1.5 hrs by microbeta scintillation counting analysis
[32] = biological target: Alpha-2A adrenergic receptor (Homo sapiens) (UniProt P08913); assay: Displacement of […] from alpha 2A adrenergic receptor at 10 uM after 40 mins by microbeta scintillation counting analysis
[33] = biological target: Histamine H3 receptor (Homo sapiens) (UniProt Q9Y5N1); assay: Displacement of [3H]alpha-methylhistamine from human recombinant histamine H3 receptor at 10 uM after 1.5 hrs by microbeta scintillation counting analysis

5-hydroxytryptamine receptor 1B (Homo sapiens), sequence (P28222 whole entry): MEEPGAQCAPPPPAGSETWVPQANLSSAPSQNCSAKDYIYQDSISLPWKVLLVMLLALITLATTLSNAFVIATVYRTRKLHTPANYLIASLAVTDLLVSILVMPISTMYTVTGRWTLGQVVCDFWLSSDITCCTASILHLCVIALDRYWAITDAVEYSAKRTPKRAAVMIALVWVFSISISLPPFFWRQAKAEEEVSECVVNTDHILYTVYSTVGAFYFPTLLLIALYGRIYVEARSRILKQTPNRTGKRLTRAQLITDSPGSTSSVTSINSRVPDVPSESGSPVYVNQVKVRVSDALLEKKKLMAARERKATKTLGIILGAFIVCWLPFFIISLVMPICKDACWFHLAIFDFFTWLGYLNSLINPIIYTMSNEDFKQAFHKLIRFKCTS

Work on `c1ccc(OCc2cc(OC[C@@H]3CCCN3)no2)cc1` yielded an Efficacy [1] of -1.2%, an Efficacy [2] of 23.9% and an Efficacy [3] of 10.3%. The Efficacy [4] was 21%, the Efficacy [5] was 25.2% and the Ki [6] was 1310 nM. The Efficacy [7] was 44.4%, the Efficacy [8] was 32.4% and the Efficacy [9] was 9.4%. The Efficacy [10] was 59.4%, the Efficacy [11] was 34.4% and the Efficacy [12] was 55.6%. It also gave an Efficacy (Rattus norvegicus [13]) of 27.1%, an Efficacy [14] of 11.8% and a Ki [15] of 203 nM. It also gave an Efficacy [16] of 35.9%, an Efficacy [17] of 33.6% and an Efficacy [18] of 95.9%. It also gave an Efficacy [19] of 28.3%, an Efficacy [20] of -5.7% and an Efficacy [21] of 7%. The Efficacy [22] was 36.5%, the Efficacy [23] was 4.4% and the Efficacy [24] was 54.5%. The Efficacy [25] was 36.6%, the Efficacy (Rattus norvegicus [26]) was 5.7% and the Efficacy [27] was 26.5%. The Efficacy [28] was 16.9%, the Efficacy (Histamine H2 receptor) was 57.2% and the Efficacy [29] was 29.8%. For the same compound, the Efficacy [30] was 76.9%, the Ki [31] was over 10000 nM and the Efficacy [32] was 36.1%. The Efficacy [33] was -4.9%.
Compound `c1ccc(OCc2cc(OC[C@@H]3CCN3)no2)cc1` has an Efficacy [1] of 2.3%, an Efficacy [2] of 22.9% and an Efficacy [3] of 4.9%. It also gave an Efficacy [4] of 17.5%, an Efficacy [5] of 22.4% and a Ki [6] of 1470 nM. The Efficacy [7] was 34.8%, the Efficacy [8] was 15.2% and the Efficacy [9] was 6.7%. For the same compound, the Efficacy [10] was 91.8%, the Efficacy [11] was 26.3% and the Efficacy [12] was 29.4%. The Efficacy (Rattus norvegicus [13]) was 23.5%, the Efficacy [14] was 12.6% and the Ki [15] was 191 nM. It also gave an Efficacy [16] of 12.9%, an Efficacy [17] of 35.1% and an Efficacy [18] of 97.2%. It also gave an Efficacy [19] of 51.6%, an Efficacy [20] of 6.1% and an Efficacy [21] of -0.1%. It also gave an Efficacy [22] of 4.9%, an Efficacy [23] of 5.7% and an Efficacy [24] of 43.3%. For the same compound, the Efficacy [25] was 44.5%, the Efficacy (Rattus norvegicus [26]) was 2.5% and the Efficacy [27] was 42.6%. It also gave an Efficacy [28] of 42.4%, an Efficacy (Histamine H2 receptor) of 40.9% and an Efficacy [29] of 38.1%. It also gave an Efficacy [30] of 68.8%, a Ki [31] of over 10000 nM and an Efficacy [32] of 17.4%. The Efficacy [33] was 4.7%.
